Test results from article PMC5381946 (PLoS Pathogens, 2017).

How the values were obtained:
[1] = molecular target: APE1 exonuclease activity (Homo sapiens, UniProt P27695); test: Exonuclease assay for APE1 C-terminal (DNA base excision) activity; format: biochemical
KSHV [2] = test: KSHV virion production (encapsidated viral DNA in media) from TPA-induced BCBL-1 cells; format: cell-based, Kaposi's sarcoma-associated herpesvirus (KSHV); details: for EC50: Human gammaherpesvirus 8, BCBL1, 120 h, TPA-induced BCBL-1, encapsidated viral DNA in media 5 days post-induction, read-out: EC50 for blocking KSHV virion production
KSHV-infected PDLSCs [3] = test: Matrigel-transwell cell invasion assay with KSHV-infected PDLSCs; details: C10 in different concentrations
RTA promoter = format: cell-based, human
KSHV-infected HUVECs = test: ELISA of VEGF-A, IL-6 and IL-8 secreted by KSHV-infected HUVECs; format: cell-based, human; details: S3 Fig
Excerpt: (§1) KS has been considered as a cytokine disease as KS lesions over-produce cytokines, especially angiogenic growth factors, that contribute to the major pathogenic features of KS [53, 54]. In the early stage, KS is not a real sarcoma but an angiohyperplastic-inflammatory lesion mediated by inflammatory cytokines and angiogenic factors. The finding that the paracrine-regulated angiogenesis requires the redox function of APE1 (Fig 2) prompted us to further investigate if blockade of APE1 redox function by C10 could reduce cytokine and angiogenic factor production. […] Then the culture media were collected and examined for the expression of VEGF-A and IL-6 by ELISA.
(§2) Levels of VEGF-A, IL-6 and IL-8 in cell culture supernatants were determined using specific ELISA kits for human VEGF-A (eBioscience), IL-6 (BD) and IL-8 (Xin Bosheng, China) according to the manufacturer instructions.
Supplementary file ppat.1006289.s003.pdf: S3 Fig Effects of C10 on KSHV-mediated secretion of VEGF-A, IL-6 and IL-8 from HUVECs. KSHV-infected HUVECs were treated with either C10 for 24 hours. After changing media to remove C10 from the media, cells were continued to culture for 24 hours. Then the culture media were collected and examined for the expression of VEGF-A, IL-6 and IL-8 by ELISA. (PDF) Click here for additional data file.

[4] = Cytotoxicity by Trypan blue exclusion in BCBL-1 cells; details: human
KSHV-infected PDLSCs [5] = test: ELISA of angiogenic growth factors secreted by KSHV-infected PDLSCs; format: cell-based, human; details: KSHV-PDLSCs treated 24 hours, media changed, collected after a further 24 hours
Excerpt: as §1, §2

APE1 [6] = molecular target: T1, APE1 (Homo sapiens, UniProt P27695); test: Differential scanning fluorimetry (DSF) thermal shift of APE1; details: APE1 2 μM, incubated with compound at 37°C for 30 min; melting curves shifted to the left
T1 sequence (P27695 whole entry): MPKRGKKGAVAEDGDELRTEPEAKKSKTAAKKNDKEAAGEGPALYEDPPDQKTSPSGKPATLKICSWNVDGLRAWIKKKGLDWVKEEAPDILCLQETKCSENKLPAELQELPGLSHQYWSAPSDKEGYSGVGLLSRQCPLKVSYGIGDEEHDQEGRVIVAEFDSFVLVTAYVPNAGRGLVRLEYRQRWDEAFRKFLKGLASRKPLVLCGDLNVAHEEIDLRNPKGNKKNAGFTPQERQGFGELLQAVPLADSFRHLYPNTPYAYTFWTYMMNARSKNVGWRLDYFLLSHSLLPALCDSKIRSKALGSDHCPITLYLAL

[7] = tested on: KSHV-induced angiogenesis; test: Murine Matrigel plug assay of angiogenesis by KSHV-infected PDLSCs; format: in vivo; details: C10 in varying concentrations mixed with Matrigel; C57BL/6 mice; day 7
Excerpt: Next, we employed a murine Matrigel plug assay to examine the ability of C10 to inhibit angiogenesis […]. KSHV-infected and mock-infected PDLSCs were mixed with Matrigel (without any cytokines) and implanted into C57BL/6 mice. In day 7, the matrigel plugs were stripped and examined for new blood vessel formation. […] The effect of C10 on KSHV-mediated angiogenesis in the […] assay was quantitated by measuring the hemoglobin content after homogenizing the Matrigel plugs using Drabkin’s reagent. The result, shown in Fig 6C (right panel), is consistent with that of in vitro Matrigel tubule formation assay.
Female C57BL/6 mice (4 to 6 weeks old) were obtained from the Sun Yat-sen University Animal Center. Five animals were used per treatment group. 5-10x10^6 cells in 100–200 μl medium were prepared and thoroughly mixed with 500 μl matrigels to total volume of 600–800 μl, and subsequently implanted to mice by inguinal injection. After even days, the mice were killed and matrigel plugs were removed. The Matrigel plugs were photographed and subsequently dissolved in 1 ml Dispase reagent for 16 h at 37°C. After removal of debris by centrifugation, hemoglobin was qualified using Drabkin's reagent (Sigma-Aldrich).

AP-1 promoter = test: AP-1 promoter-luciferase reporter assay in 293T cells; format: cell-based, human; details: TPA induction, varying C10 concentrations
APE1 [8] = molecular target: T1, APE1; test: Surface plasmon resonance (SPR) binding to APE1
KSHV [9] = test: microbe, parasite or virus in culture; details: Human gammaherpesvirus 8, 3 h, read-out: EC50 for virion production
KSHV [10] = test: KSHV lytic DNA replication in doxycycline-induced iSLK.219 cells; format: cell-based, Kaposi's sarcoma-associated herpesvirus (KSHV); details: Human gammaherpesvirus 8, doxycycline 3 h, then C10, read-out: IC50 for viral lytic DNA replication
KSHV [11] = tested on: KSHV
APE1 redox activity = molecular target: T2, APE1 redox activity (Homo sapiens, UniProt P27695); test: EMSA-based assay for APE1 redox activity (APE1-dependent AP-1 DNA binding); format: biochemical; details: reduced APE1 0.1 μM, purified c-jun/c-fos
T2 construct: 6xHis (N); made in house; host or cells: E. coli (Roseta)
T2 sequence (P27695 whole entry): as above

KSHV-infected PDLSCs [12] = test: In vitro Matrigel tube formation assay with KSHV-infected PDLSCs; details: for paracrine-mediated angiogenesis (tubulogenesis of PDLSCs in conditioned media): conditioned media from KSHV-infected PDLSCs treated 24 hours with compound
[13] = Cytotoxicity (MTT assay) in iSLK.219 cells; format: cell-based; details: human
Excerpt: The medium was replaced with DMSO.
(PDF) Click here for additional data file.

KSHV [14] = test: KSHV lytic DNA replication (intracellular viral genomic DNA, real-time PCR) in TPA-induced BCBL-1 cells; format: cell-based, Kaposi's sarcoma-associated herpesvirus (KSHV); details: Human gammaherpesvirus 8, BCBL1, compound added 3 h post-induction, intracellular viral genomic DNA at 48 h post-induction
pancreatic cancer = tested on: pancreatic cancer; parameters: method as in PMID 21700832; details: cell lines and pancreatic cancer xenograft model in mice; cited from earlier work
retinal angiogenesis = tested on: retinal angiogenesis; parameters: method as in PMID 20937296, PMID 24624338; details: in vitro and in an animal model; cited from earlier work
[15] = parameters: method as in PMID 18627350; details: cited from earlier work
in vitro = details: human

APE1 exonuclease activity, sequence (P27695 whole entry): as above

## O=c1c(O)c(-c2cc(O)c(O)c(O)c2)oc2cc(O)cc(O)c12 [Myrecetin, reference compound]
[1]; positive control, different concentrations
  effect on APE1 exonuclease activity: dose-dependent inhibitory response

## Cc1ccc(/C=C/C(=O)CC(=O)/C=C/c2ccc(C)o2)o1 [C10, (1E,6E)-1,7-bis(5-methylfuran-2-yl) hepta-1-6-diene-3,5–dione]
KSHV [2]; BCBL-1
  fold by which EC50 (virion release) is lower than IC50 (intracellular viral DNA replication): 29 fold
  selectivity index (CC50 / EC50): 165
KSHV [2]
  EC50: 0.16 µM
[1]; up to 100 μM of C10
  effect on APE1 exonuclease activity: unaffected
KSHV-infected PDLSCs [3]
  cell migration and invasion of KSHV-PDLSC (Transwell): able to block cell migration and invasion
RTA promoter
  TPA-induced RTA promoter activity (luciferase): able to block
  auto-regulation of the RTA promoter activity by RTA (luciferase): able to block auto-regulation of the RTA promoter activity
KSHV-infected HUVECs
  KSHV-induced productions of VEGF-A, IL-6 and IL-8 (ELISA): inhibited by C10
[4]
  CC50 at 48 h: 26.4 µM
KSHV-infected PDLSCs [5]
  levels of secreted angiogenic growth factors (VEGF-A, IL-6) by ELISA: able to reduce the levels of these angiogenic growth factors
APE1 [6]
  shift of the Tm of APE1 (DSF): 1.3 °C
[7]
  KSHV-induced angiogenesis in Matrigel plug (blood vessel formation, hemoglobin content): dramatically inhibited in a dose dependent manner
AP-1 promoter
  TPA-induced AP-1 promoter activity (luciferase): able to block
APE1 [8]
  Kd: 0.189 µM
KSHV [9]
  EC50: 3.2 µM
KSHV [10]
  IC50: 5.8 µM
KSHV [11]
  SI (CC50 / EC50): 23.4
APE1 redox activity
  IC50: 17 µM
KSHV-infected PDLSCs [12]
  paracrine-mediated angiogenesis (tubulogenesis of PDLSCs in conditioned media): capable of inhibiting paracrine-mediated angiogenesis
[13]
  CC50 at 48 h: 75 µM
KSHV [14]
  IC50: 4.6 µM

## CCCCCCCCC/C(=C\C1=C(C)C(=O)C(OC)=C(OC)C1=O)C(=O)O [E3330]
KSHV [2]
  EC50: 8.5 µM
Pancreatic cancer
  tumor growth: cause tumor growth inhibition
KSHV-infected PDLSCs [5]
  levels of secreted angiogenic growth factors (VEGF-A, IL-6) by ELISA: able to reduce the levels of these angiogenic growth factors
Retinal angiogenesis
  retinal angiogenesis: blocks retinal angiogenesis in vitro and in an animal model
[15]
  cytotoxicity: low cytotoxicity
KSHV-infected PDLSCs [12]; compound present on Matrigel at different concentrations
  tubulogenesis of KSHV-PDLSC (total tube length): showed inhibitory activity at higher doses
KSHV-infected PDLSCs [12]
  paracrine-mediated angiogenesis (tubulogenesis of PDLSCs in conditioned media): capable of inhibiting paracrine-mediated angiogenesis
In vitro
  CC50 at 48 h: 112 µM
KSHV [14]
  IC50: 17.7 µM
